Reference: PMC8622842, “Absolute Structure Determination and Kv1.5 Ion Channel Inhibition Activities of New Debromoaplysiatoxin Analogues” (Marine Drugs, 2021)
“Also recorded” adds a separate entry of the source. Read-outs that look alike come from different tables or passages of the source.

Tests used:
[1] = test system: Kv1.2 channel; parameters: method as in PMID 18313714; conditions: read-out: IC50 against Kv1.2 channel; cited from earlier work
[2] = target: T1, human Kv1.5 channels (Homo sapiens, UniProt P22460); experiment: Kv1.5 current inhibition, whole-cell electrophysiology in LTK cells stably expressing human Kv1.5; assay type: cell-based; conditions: for Voltage dependence of Kv1.5 current inhibition: tested potentials -50 mV to 50 mV
T1 construct: expressed in transfected cells
T1 sequence (P22460 whole entry): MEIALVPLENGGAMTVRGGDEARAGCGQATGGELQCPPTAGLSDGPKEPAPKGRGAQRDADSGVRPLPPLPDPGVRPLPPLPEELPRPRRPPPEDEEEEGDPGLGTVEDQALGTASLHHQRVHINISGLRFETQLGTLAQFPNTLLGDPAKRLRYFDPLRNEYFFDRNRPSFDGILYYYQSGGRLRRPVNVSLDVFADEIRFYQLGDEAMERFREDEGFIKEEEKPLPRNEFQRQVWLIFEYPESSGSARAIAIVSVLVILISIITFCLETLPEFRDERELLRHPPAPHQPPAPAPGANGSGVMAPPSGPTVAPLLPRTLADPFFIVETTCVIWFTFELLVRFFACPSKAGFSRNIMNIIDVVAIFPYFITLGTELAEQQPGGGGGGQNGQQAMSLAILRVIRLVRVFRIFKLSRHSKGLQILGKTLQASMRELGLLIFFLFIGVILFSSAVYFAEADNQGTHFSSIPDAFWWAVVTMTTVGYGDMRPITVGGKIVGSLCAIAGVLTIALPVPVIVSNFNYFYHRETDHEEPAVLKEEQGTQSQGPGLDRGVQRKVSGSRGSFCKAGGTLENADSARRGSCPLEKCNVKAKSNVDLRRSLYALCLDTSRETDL
Description: For culturing mouse L cells lacking thymidine kinase (LTK) cells stably expressing human Kv1.5 channels (LTK/Kv1.5), 10% fetal bovine serum (FBS), 10,000 U/ml penicillin G and 10 mg/ml streptomycin were added into Dulbecco’s Modified Eagle Media (DMEM). LTK/Kv1.5 cells were cultured in a 37 °C humidified incubator set to 5% CO2. The amount of 100 μg/ml Genetic (G418) was added into the culture media to select transgenic cells. When the cells grew to 75–85% confluence, they were passaged for subsequent electrophysiological records (Supplementary Materials 1.3.1.1).
LTK cells cultured for at least 24 h could be used for currents recording. For Kv1.5 potassium current recording, the recording micropipettes were pulled with a P97 microelectrode puller (Sutter, CA, USA) with a resistance of about 3 MΩ when filling with internal solution containing the following: KCl 140 mM, MgCl2 1 mM, EGTA 5 mM, HEPES 10 mM and MgATP 1 mM (pH was adjusted to 7.25 by KOH). The bath solution contained the following: NaCl 137 mM, KCl 5.4 mM, CaCl2 1.8 mM, MgCl2 1 mM, Glucose 10 mM and HEPES 10 mM (pH was adjusted to 7.4 by NaOH). Kv1.5 currents were recorded at room temperature (22–24 °C) by PulseMaster (Version 2.65, Heka, Lambrecht, Germany) via an EPC-10 USB amplifier (Heka, Lambrecht, Germany). In order to reduce recording errors, cells with seal resistance above 1 GΩ and series resistance that was fully compensated above 80% were used. Leak compensation was used to compensate the leak current and to subtract the capacitive artifacts (Supplementary Materials 1.3.1.2).
1.3.1. Ion Channel Experiment
For culturing mouse L cells lacking thymidine kinase (Ltk−) cells stably expressing human Kv1.5 channels (Ltk−/Kv1.5), 10% fetal bovine serum (FBS), 10,000 U/ml penicillin G and 10 mg/ml streptomycin were added into Dulbecco's Modified Eagle Media (DMEM). Ltk−/Kv1.5 cells were cultured in a 37 °C humidified incubator set to 5% CO2. 100 μg/ml Genetic (G418) was added into the culture media to select transgenic cells. When the cells grew to 75% - 85% confluent, they were passaged for subsequent electrophysiological records.μ1.3.1.2.
1.3.1.2. Electrophysiology
Ltk− cells cultured for at least 24 h could be used for currents recording. For Kv1.5 potassium currents recording, the recording micropipettes were pulled with a P97 microelectrode puller (Sutter, CA, USA) with a resistance about 3 MΩ when filling with internal solution containing: KCl 140 mM, MgCl2 1 mM, EGTA 5 mM, HEPES 10 mM, MgATP 1 mM (pH was adjusted to 7.25 by KOH). The bath solution contained: NaCl 137 mM, KCl 5.4 mM, CaCl2 1.8 mM, MgCl2 1 mM, Glucose 10 mM, HEPES 10 mM (pH was adjusted to 7.4 by NaOH). Kv1.5 currents were recorded at room temperature (22–24°C) by PulseMaster (Version 2.65, Heka, Lambrecht, Germany) via an EPC-10 USB amplifier (Heka, Lambrecht, Germany).
To reduce recording errors, cells with seal resistance above 1 GΩ and series resistance was fully compensated above 80% were used. Leak compensation was used to compensate the leak current and to subtract the capacitive artifacts
Cells with amplitudes above 1 nA, series resistance less than 10 MΩ and leak compensation below 200 pA were chosen for data analysis. Kv1.5 currents were evoked by a 300 ms depolarizing pulse from -50 mV to 50 mv in 20 mV increments from a holding potential of -70 mV. The current amplitude at the end of 300-ms pulse was measured. The IC50 and Hill coefficient (n) was obtained by fitting concentration dependence data to the equation of I (%) = 1/{1+(IC50/[D]) n} in which I (%) is the percent inhibition of current (I (%) = [1-Idrug/Icontrol] ×100) at test potential and [D] represents various drug concentrations . The measured error at the end of relative short 300 ms pulse was limited and the fitted IC 50 was acceptable. For steady-state activation curves were fitted with the Boltzmann function: G/Gmax =1/{1+exp[−(V-V1/2)/k]}, where V is a membrane potential and the Nernst K + equilibrium potential EK was calculated as−80 mV. G was […]

[3] = test system: Artemia salina; experiment: whole plant or invertebrate; assay type: in vivo; conditions: for Effect on brine shrimp A. salina: at 30 µM
Description: Brine shrimp A. salina is an important model organism for ecosystems, and because of its high sensitivity and easy availability, it can be used in laboratory settings to study toxic effects and to provide safe results. A. salina or brine shrimp cysts were cultivated in 3.2% of saline water. After aeration with normal saline, cysts were placed at temperature for 24 h and then cultured. For toxicity screening, hatched larvae were collected and introduced in saline water. Add 0.9% brine and 30 larvae with good activity to each well to produce a 96-well test culture plate. New compounds of 0.1 µM, 1 µM, 10 µM and 30 µM and DAT were added to the experimental culture plate, respectively. Dimethyl sulfoxide (Aladdin, Shanghai, China) and dichloromethane (Aladdin, Shanghai, China) were added as blank control and positive control. The survival rate of A. salina was calculated after 24 h treatment at 25 °C.
Commercially available Artemia salina (A. salina) or brine shrimp cysts were purchased and cultivated in 3.2% of saline water. Before cultivation, the saline was aerated, and then cysts were kept at room temperature for 24 h. For toxicity screening, hatched larvae were collected and introduced in saline water. Add saline water and equivalent larvae in per well of 96 wells to make test culture plate. Aplysiatoxins with 0.1 μM, 1 μM, 10 μM, 30 μM was added to test culture plate, while DMSO and dichloromethane were added as blank control test and positive control separately. After 24 h in 25 °C, the percent of survival of A. salina was calculated.
Table S1.3.2.1. Effect of compounds 1-4 to Artemia salina (A. salina) . A. salina were treated with indicated concentration (0.1 µM, 1 µM, 10 µM, 30 µM) of dichloromethane (DCM), debromoaplysiatoxin (DAT), oscillatoxin J, oscillatoxin K, oscillatoxin L, oscillatoxin M, Methylenechloride, Control for 24 h. The percentage of A. salina with all different kinds of […]
Compounds Percentage of Survival of Artemia salina after 24 h (μM) […]
Figure S1.3.2.1. Effect of debromoaplysiatoxin to Artemia salina (A. salina). […]
(also on this page, place not known: compound s , , , , J K L M . USA) -1.5 -1.0 -0.5 0.0 0 20 40 60 80 100 LogCon.
(1 picture or pasted object on this page, not shown here)

[4] = test system: phosphor PKCδ; parameters: method as in PMID 35521179; conditions: HepG2, 10 µM; cited from earlier work

Structure (SMILES) | IC50 [1] [nM] | IC50 ([2]; current at end of 300 ms pulse at 50 mV, 0.3-10 µM, mean ± SEM of 3 to 5 measurements, read-out: IC50 of Kv1.5 current inhibition) [nM] | Voltage dependence of Kv1.5 current inhibition [2] | Percentage of Survival of Artemia salina after 24 h ([3]; 0.1 µM, 24 h) [%] | Percentage of Survival of Artemia salina after 24 h ([3]; 1 µM, 24 h) [%] | Percentage of Survival of Artemia salina after 24 h ([3]; 10 µM, 24 h) [%] | Percentage of Survival of Artemia salina after 24 h ([3]; 30 µM, 24 h) [%] | Effect on brine shrimp A. salina [3] | IC50 [2] [nM] | Effect on Kv1.5 ([2]; at 10 µM) | Expression of phosphor PKCδ [4] | Concentration at which survival of Artemia salina began to be affected ([3]; 24 h) [nM] | IC50 ([3]; Artemia salina, 0.05-0.5 µM, read-out: IC50 of brine shrimp toxicity (survival of A. salina)) [nM]
C=CC/C=C\C=C/[C@H]1O[C@H]2C[C@H]3O[C@H]4CC[C@H]5O[C@H]6C[C@@]7(C)O[C@@]8(C)[C@@H](O)C[C@H](CCCO)O[C@@H]8C[C@@H]7O[C@@H]6C[C@@H]5O[C@]4(C)C[C@]3(C)O[C@@H]2C=C[C@]1(C)O [Gambierol] | 34.5 ± 1.5 |  |  |  |  |  |  |  |  |  |  |  | 
CO[C@@H](CC[C@H](C)[C@H]1O[C@@]23C[C@H](OC(=O)C[C@H]([C@@H](C)O)OC(=O)/C=C(\O2)C(C)=CC3(C)C)[C@@H]1C)c1cccc(O)c1 [Compound 1, oscillatoxin J] |  | 2610 ± 910 | voltage dependently inhibited | 96.62±0.37 | 95.87±0.7 | 95±1.52 | 93.61±5.11 | no apparent effect |  |  |  |  | 
CO[C@@H](CC[C@H](C)[C@H]1O[C@@]23C[C@H](OC(=O)C[C@H]([C@@H](C)O)OC(=O)C[C@](O)(O2)[C@@](C)(O)CC3(C)C)[C@@H]1C)c1cccc(O)c1 [Compound 3, oscillatoxin L] |  |  |  | 97.74±1.60 | 98.89±1.57 | 96.37±0.28 | 73.38±9.64 | no apparent effect | > 10000 | minimum effects; also recorded: no apparent Kv1.5 inhibition activity |  |  | 
CO[C@@H](CC[C@H](C)[C@H]1O[C@@]23C[C@H](OC(=O)C[C@H]([C@@H](C)O)OC(=O)C[C@](O)(O2)[C@H](C)CC3(C)C)[C@@H]1C)c1cccc(O)c1 [Compound 5, debromoaplysiatoxin] |  |  |  | 87.19±0.74 | 2.96±2.1 | 0 | 0 |  |  |  | strongly upregulating | 100 | 340 ± 36
CO[C@@H](CC[C@H](C)[C@H]1O[C@]23C[C@H](OC(=O)C[C@H]([C@@H](C)O)OC(=O)[C@H](O)C(=C(C)CC2(C)C)O3)[C@@H]1C)c1cccc(O)c1 [Compound 2, oscillatoxin K] |  |  | voltage dependently inhibited | 96.63±0.05 | 96.05±0.07 | 95.23±0.19 | 89.97±7.12 | no apparent effect | 3860 ± 1030 |  |  |  | 
ClCCl [Methylenechloride, dichloromethane, reference compound] |  |  |  | 0 | 0 | 0 | 0 |  |  |  |  |  | 
COC(CCC(C)C1OC23CC(OC(=O)CC(C(C)O)OC(=O)CC(C)(O2)C(=O)CC3(C)C)C1C)c1cccc(O)c1 (stereo not shown) [Compound 4, oscillatoxin M] |  |  | voltage dependently inhibited | 95.13±1.09 | 96.29±0.11 | 96.15±0.12 | 82.27±6.13 | no apparent effect | 3790 ± 1010 |  |  |  | 
